Tests used:
[1] = molecular target: T1, ATP-binding cassette sub-family C member 2 (Rattus norvegicus, UniProt Q63120); assay: TP_TRANSPORTER: biliary excretion in SD rat; type: functional, organism-based, Sprague-Dawley, Bile; conditions: in vivo
[2] = molecular target: T1, ATP-binding cassette sub-family C member 2; assay: TP_TRANSPORTER: biliary excretion in EHBR rat; type: functional, organism-based, Bile; conditions: in vivo

T1 sequence (Q63120 whole entry): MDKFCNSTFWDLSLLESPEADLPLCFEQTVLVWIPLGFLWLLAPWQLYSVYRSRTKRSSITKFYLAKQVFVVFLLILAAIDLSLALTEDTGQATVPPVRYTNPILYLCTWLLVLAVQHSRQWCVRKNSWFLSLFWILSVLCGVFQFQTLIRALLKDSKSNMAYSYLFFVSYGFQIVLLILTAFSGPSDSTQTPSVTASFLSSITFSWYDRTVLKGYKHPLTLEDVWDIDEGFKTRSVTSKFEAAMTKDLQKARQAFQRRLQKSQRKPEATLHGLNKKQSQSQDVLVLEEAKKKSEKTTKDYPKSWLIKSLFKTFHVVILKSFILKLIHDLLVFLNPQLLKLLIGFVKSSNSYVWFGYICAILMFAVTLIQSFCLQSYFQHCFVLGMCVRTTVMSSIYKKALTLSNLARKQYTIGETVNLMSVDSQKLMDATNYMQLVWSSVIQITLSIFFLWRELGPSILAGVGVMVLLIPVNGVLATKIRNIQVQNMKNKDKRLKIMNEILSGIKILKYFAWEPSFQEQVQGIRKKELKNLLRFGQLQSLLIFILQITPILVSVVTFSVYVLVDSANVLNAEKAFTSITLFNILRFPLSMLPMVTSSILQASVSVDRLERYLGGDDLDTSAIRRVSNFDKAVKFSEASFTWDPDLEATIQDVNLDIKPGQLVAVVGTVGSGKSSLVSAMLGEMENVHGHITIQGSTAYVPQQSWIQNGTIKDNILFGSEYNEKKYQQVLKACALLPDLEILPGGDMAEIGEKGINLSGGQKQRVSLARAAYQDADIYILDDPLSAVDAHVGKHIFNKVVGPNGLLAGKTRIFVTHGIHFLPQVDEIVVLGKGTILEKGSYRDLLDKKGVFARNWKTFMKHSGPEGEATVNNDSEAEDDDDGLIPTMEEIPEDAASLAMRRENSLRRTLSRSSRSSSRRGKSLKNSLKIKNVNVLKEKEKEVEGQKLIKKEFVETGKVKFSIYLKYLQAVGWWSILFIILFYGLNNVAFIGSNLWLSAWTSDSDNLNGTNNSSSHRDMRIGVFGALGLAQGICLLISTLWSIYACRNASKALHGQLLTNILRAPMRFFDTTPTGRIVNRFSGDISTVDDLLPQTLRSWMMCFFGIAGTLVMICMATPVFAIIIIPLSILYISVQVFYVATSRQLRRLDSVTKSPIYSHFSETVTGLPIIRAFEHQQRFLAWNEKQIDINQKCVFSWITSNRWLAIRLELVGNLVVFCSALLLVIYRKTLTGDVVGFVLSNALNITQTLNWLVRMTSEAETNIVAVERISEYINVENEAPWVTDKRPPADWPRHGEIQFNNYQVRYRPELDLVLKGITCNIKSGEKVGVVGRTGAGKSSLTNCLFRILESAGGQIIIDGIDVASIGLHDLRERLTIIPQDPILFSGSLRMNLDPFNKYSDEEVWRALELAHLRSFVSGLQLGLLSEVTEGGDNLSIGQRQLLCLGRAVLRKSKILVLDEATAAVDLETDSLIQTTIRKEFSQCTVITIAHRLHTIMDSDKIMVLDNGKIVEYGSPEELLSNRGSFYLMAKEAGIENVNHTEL

Activity [1]: substrate [+]
Activity [2]: substrate [+]
Structure (SMILES): O=C1CC(c2ccc(O[C@@H]3O[C@H](C(=O)O)[C@@H](O)[C@H](O)[C@H]3O)cc2)Oc2cc(O)ccc21 (some centres not stated) [LIQUIRTIGENIN GLUCURONIDE]

— ChEMBL document CHEMBL2074518, “Multiple systems for the biliary excretion of organic anions in rats: liquiritigenin conjugates as model compounds” (J Pharmacol Exp Ther, 1994)
